# According to ChEMBL document CHEMBL1201862, “PubChem BioAssay data set” (2004):
#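 The compound was tested at five concentrations on cells cultured in 96-well plates, with a 48-hour exposure period. GI50: concentration for 50% inhibition of growth.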 Active and inactive are the calls of the source. Cut-off read from the data, not from the text of the source: active = GI50 up to about 1.1 µM and inactive = higher.
# Tests used:
# Assay in all cases: inhibition of tumour cell growth, NCI panel, 48 h
# [1] = test system: 786-0
# [2] = test system: A498
# [3] = test system: A549
# [4] = test system: ACHN
# [5] = test system: BT-549
# [6] = test system: CAKI-1
# [7] = test system: CCRF-CEM
# [8] = test system: COLO 205
# [9] = test system: DLD-1
# [10] = test system: DMS-114
# [11] = test system: DMS-273
# [12] = test system: DU-145
# [13] = test system: EKVX
# [14] = test system: HCC 2998
# [15] = test system: HCT-116
# [16] = test system: HCT-15
# [17] = test system: HL-60
# [18] = test system: HOP-18
# [19] = test system: HOP-62
# [20] = test system: HOP-92
# [21] = test system: HT-29
# [22] = test system: Hs-578T
# [23] = test system: IGROV-1
# [24] = test system: K562
# [25] = test system: KM-20L2
# [26] = test system: KM12
# [27] = test system: LOX IMVI
# [28] = test system: M14
# [29] = test system: M19-MEL
# [30] = test system: MCF7
# [31] = test system: MDA-MB-231
# [32] = test system: MDA-MB-435
# [33] = test system: MDA-N
# [34] = test system: MOLT-4
# [35] = test system: Malme-3M
# [36] = test system: NCI-H226
# [37] = test system: NCI-H23
# [38] = test system: NCI-H460
# [39] = test system: NCI-H522
# [40] = test system: NCI/ADR-RES
# [41] = test system: OVCAR-3
# [42] = test system: OVCAR-4
# [43] = test system: OVCAR-5
# [44] = test system: OVCAR-8
# [45] = test system: PC-3
# [46] = test system: RPMI-8226
# [47] = test system: RXF 393
# [48] = test system: SF-268
# [49] = test system: SF-295
# [50] = test system: SF-539
# [51] = test system: SK-MEL-28
# [52] = test system: SK-MEL-2
# [53] = test system: SK-MEL-5
# [54] = test system: SK-OV-3
# [55] = test system: SN12C
# [56] = test system: SNB-19
# [57] = test system: SNB-75
# [58] = test system: SNB-78
# [59] = test system: SR
# [60] = test system: SW-620
# [61] = test system: T47D
# [62] = test system: TK-10
# [63] = test system: U-251
# [64] = test system: UACC-257
# [65] = test system: UACC-62
# [66] = test system: UO-31
# [67] = test system: XF498
# [68] = test system: LXFL 529
smiles,measurement,setting,value
CO[C@H]1Nc2c(ccc(C)c2O)C(=O)N2C=C(/C=C/C(N)=O)C[C@@H]12 [ANTHRAMYCIN METHYL ETHER],GI50,[1],0.0163 µM (active)
same,GI50,[2],183 nM (active)
same,GI50,[3],0.0331 µM (active)
same,GI50,[4],0.0181 µM (active)
same,GI50,[5],14.3 nM (active)
same,GI50,[6],0.047 µM (active)
same,GI50,[7],0.0193 µM (active)
same,GI50,[8],0.0316 µM (active)
same,GI50,[9],0.118 µM (active)
same,GI50,[10],0.0213 µM (active)
same,GI50,[11],0.0295 µM (active)
same,GI50,[12],37.7 nM (active)
same,GI50,[13],0.0462 µM (active)
same,GI50,[14],0.0436 µM (active)
same,GI50,[15],0.0382 µM (active)
same,GI50,[16],28.2 nM
same,GI50,[17],43.6 nM (active)
same,GI50,[18],0.444 µM (active)
same,GI50,[19],0.0186 µM (active)
same,GI50,[20],25.8 nM (active)
same,GI50,[21],0.0256 µM (active)
same,GI50,[22],10.3 nM (active)
same,GI50,[23],0.0358 µM (active)
same,GI50,[24],0.0396 µM (active)
same,GI50,[25],0.184 µM (active)
same,GI50,[26],0.0303 µM (active)
same,GI50,[27],0.0161 µM (active)
same,GI50,[28],0.0143 µM (active)
same,GI50,[29],0.0269 µM (active)
same,GI50,[30],38.9 nM (active)
same,GI50,[31],15.9 nM (active)
same,GI50,[32],14 nM (active)
same,GI50,[33],13.3 nM (active)
same,GI50,[34],0.0276 µM (active)
same,GI50,[35],0.0261 µM (active)
same,GI50,[36],0.128 µM (active)
same,GI50,[37],0.0327 µM (active)
same,GI50,[38],0.0322 µM (active)
same,GI50,[39],0.0222 µM (active)
same,GI50,[40],31.5 nM (active)
same,GI50,[41],0.0516 µM (active)
same,GI50,[42],0.052 µM (active)
same,GI50,[43],0.0541 µM (active)
same,GI50,[44],0.0394 µM (active)
same,GI50,[45],21.5 nM (active)
same,GI50,[46],0.0242 µM (active)
same,GI50,[47],29.6 nM (active)
same,GI50,[48],0.0183 µM (active)
same,GI50,[49],0.0199 µM (active)
same,GI50,[50],0.0185 µM (active)
same,GI50,[51],0.0299 µM (active)
same,GI50,[52],0.0151 µM (active)
same,GI50,[53],0.0168 µM (active)
same,GI50,[54],40.5 nM (active)
same,GI50,[55],0.0221 µM (active)
same,GI50,[56],< 0.0179 µM (active)
same,GI50,[57],0.0228 µM (active)
same,GI50,[58],0.0258 µM (active)
same,GI50,[59],< 0.0234 µM (active)
same,GI50,[60],0.0308 µM (active)
same,GI50,[61],495 nM (active)
same,GI50,[62],58.5 nM (active)
same,GI50,[63],0.0162 µM (active)
same,GI50,[64],0.0596 µM (active)
same,GI50,[65],0.0151 µM (active)
same,GI50,[66],0.0175 µM (active)
same,GI50,[67],< 0.01 µM (active)
O=C1c2nn(-c3ccccc3)nc2C(c2ccccc2)N1c1ccccc1 (centres undefined),GI50,[1],33.3 µM (inactive)
same,GI50,[3],> 100 µM (inactive)
same,GI50,[4],> 100 µM (inactive)
same,GI50,[6],> 100 µM (inactive)
same,GI50,[7],> 100 µM (inactive)
same,GI50,[8],> 100 µM (inactive)
same,GI50,[9],> 100 µM (inactive)
same,GI50,[10],> 100 µM (inactive)
same,GI50,[11],> 100 µM (inactive)
same,GI50,[13],> 100 µM (inactive)
same,GI50,[14],> 100 µM (inactive)
same,GI50,[15],> 100 µM (inactive)
same,GI50,[16],> 100000 nM
same,GI50,[18],> 100 µM (inactive)
same,GI50,[19],28.3 µM (inactive)
same,GI50,[21],> 100 µM (inactive)
same,GI50,[23],77.6 µM (inactive)
same,GI50,[24],> 100 µM (inactive)
same,GI50,[25],> 100 µM (inactive)
same,GI50,[26],> 100 µM (inactive)
same,GI50,[27],> 100 µM (inactive)
same,GI50,[68],> 100 µM (inactive)
same,GI50,[28],> 100 µM (inactive)
same,GI50,[29],> 100 µM (inactive)
same,GI50,[34],> 100 µM (inactive)
same,GI50,[35],> 100 µM (inactive)
same,GI50,[36],34 µM (inactive)
same,GI50,[37],> 100 µM (inactive)
same,GI50,[38],> 100 µM (inactive)
same,GI50,[39],> 100 µM (inactive)
same,GI50,[41],> 100 µM (inactive)
same,GI50,[42],> 100 µM (inactive)
same,GI50,[43],> 100 µM (inactive)
same,GI50,[44],52.8 µM (inactive)
same,GI50,[46],> 100 µM (inactive)
same,GI50,[48],> 100 µM (inactive)
same,GI50,[49],41.7 µM (inactive)
same,GI50,[50],59.8 µM (inactive)
same,GI50,[51],> 100 µM (inactive)
same,GI50,[52],> 100 µM (inactive)
same,GI50,[53],> 100 µM (inactive)
same,GI50,[55],> 100 µM (inactive)
same,GI50,[56],> 100 µM (inactive)
same,GI50,[57],25 µM (inactive)
same,GI50,[58],28.1 µM (inactive)
same,GI50,[59],> 100 µM (inactive)
same,GI50,[60],> 100 µM (inactive)
same,GI50,[63],95.3 µM (inactive)
same,GI50,[64],> 100 µM (inactive)
same,GI50,[65],> 100 µM (inactive)
same,GI50,[66],> 100 µM (inactive)
same,GI50,[67],> 100 µM (inactive)
